Patent US12391737B2, “Soluble NPY2 receptor agonists” (Boehringer Ingelheim International GmbH, priority 2020, dated 2025)
*1 amine or outer side, *2 acyl side, *3 side chain or, on linkers, in order; H or OH if unused. Side-chain parts run from the residue outwards. The star is where a group is joined. C18 diacid = O=C(O)CCCCCCCCCCCCCCCCC(=O)*; γGlu = O=C(O)[C@H](CCC(=O)[*:2])N[*:1]; Isovaleryl = CC(C)CC(=O)*; Ahx = NCCCCCC(=O)O

Legend:
[1] = target: T1, Human Neuropeptide Y2 Receptor (Homo sapiens, UniProt P49146); assay: Activity (RLB binding) after incubation in solutions at different pH values; conditions: apparent Ki of filtrate after incubation at pH8.1-8.2, assumed 10 mg/ml; read-out: RLB 8 (pH8.1-8.2)
T1 construct: purchased CHEMICON HTS066M
T1 sequence (P49146 1-381): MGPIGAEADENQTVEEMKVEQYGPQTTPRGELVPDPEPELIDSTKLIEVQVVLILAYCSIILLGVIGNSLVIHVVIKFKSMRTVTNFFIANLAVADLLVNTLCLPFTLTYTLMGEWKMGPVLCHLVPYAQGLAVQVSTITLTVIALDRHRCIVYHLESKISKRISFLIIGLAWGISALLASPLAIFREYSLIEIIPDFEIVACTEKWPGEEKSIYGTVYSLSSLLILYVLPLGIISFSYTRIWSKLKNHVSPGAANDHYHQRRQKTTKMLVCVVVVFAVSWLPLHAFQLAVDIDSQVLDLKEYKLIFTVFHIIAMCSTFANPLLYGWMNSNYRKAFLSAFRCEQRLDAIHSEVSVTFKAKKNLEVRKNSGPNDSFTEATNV
Experimental: The filtration RLB assay was carried out in 96-well plates in a final volume of 100 μl per well. Freeze-dried test peptides were dissolved in 100% dimethyl sulfoxide (DMSO) to stock solutions of 1 mM and serial dilutions were performed in assay buffer (50 mM HEPES, 5 mM MgCl2, 1 mM CaCl2, pH 7.4) containing 0.2% ovalbumin. […] Next, 80 μL membranes (HTS066M, ChemiSCREEN™ Human Neuropeptide Y2 Receptor Membrane Preparation, CHEMICON) were added to each well to give a final protein concentration of 0.5 μg/well. The plates were sealed and incubated at room temperature for 2 hours in a plate shaker set at 400 rpm. The incubation was stopped by vacuum filtration onto 0.5% polyethylene amine (PE) presoaked GF/C filters using a 96-well FilterMate™ harvester (Perkin Elmer) followed by four washes with 300 μl/well ice-cold wash buffer (50 mM HEPES, 500 mM NaCl, pH7.4). Filter plates were then dried for 60 min at room temperature and the bottom of the plates was sealed with backing tape UniFilter-96. Finally, 50 μl/well scintillation counter cocktail (Microscint20, Packard) was added and the radioactivity was counted in the Packard TopCount NXT scintillation counter. IC50 values (the half maximal inhibitory concentration of the agonist) were calculated by nonlinear regression analysis of sigmoidal dose-response curves.
The peptide was (partially) dissolved by shaking the filter unit horizontally at approx. 400 rpm for 2 hours at room temperature. The sample was filtered to remove any insoluble particles.

[2] = target: T1, Human Neuropeptide Y2 Receptor; assay: Radioligand binding competition assay (RLB); conditions: Table 3, 125I-PYY(1-36) competition; read-out: Ki
Summary of the method: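 Filtration binding assay on human Y2 receptor membrane preparation, 0.5 μg protein per well, in 50 mM HEPES pH 7.4 containing 5 mM MgCl2, 1 mM CaCl2 and 0.2% ovalbumin. Plates shake 2 h at room temperature before harvest and scintillation counting.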

NMRI mice = assay: Effect on acute food intake in normal NMRI mice; type: in vivo; conditions: 5 nmol/kg subcutaneously once
Experimental: Male NMRI mice were obtained from Charles River (Charles River, Research Models & Services Germany GmbH) or from JanVier (JanVier Labs, France) at 5 weeks of age. […] Room temperature was controlled to 21° C.±1° C., with 60%±20% humidity.
Animals were transferred 5-7 days before the start of the study to a real-time food intake monitoring system, HM-2 system (MBRose, Denmark), to allow acclimatization to experimental conditions. As the animals were uniquely identified with microchips, each individual animal was identified by its microchip upon entry and exit from the food channel. Randomization of the mice for each study group (n=7-8) was based on body weight measured the day before the start of the study. A vehicle-treated (50 mM phosphate buffer pH7 with 5% Mannitol) group was included in each experiment. Six hours before the start of the night phase animals were fasted. One hour before the dark phase animals were dosed once subcutaneously (5 nmol/kg) with test peptide. […] The food intake of the treated groups was normalized (in %) to the average food intake of the group receiving vehicle (Table 7). Statistical significance was evaluated using One-way analysis of variance with Turkey's multiple comparison test. P<0.05 was considered statistically significant.

Solubility determination = conditions: for Sol6: pH 6; for Sol7: pH 7
Summary of the method: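 First, TFA-salt peptide was added to 0.1 M sodium diphosphate (pH 6.4 or 7.0) to 10 mg/ml and shaken 2 h at room temperature. Next, insoluble material was filtered off. Finally, filtrate and control, each 1 mg/ml in 50% acetonitrile, were compared by reversed-phase chromatography.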

[3] = target: T2, human NPY1 receptor (hY1R) (Homo sapiens, UniProt P25929); assay: HTRF cAMP Gi assay, hY1R; type: cell-based; conditions: CHO-K1 cells
T2 construct: expressed in transfected cells; host or cells: CHO-K1
T2 sequence (P25929 1-384): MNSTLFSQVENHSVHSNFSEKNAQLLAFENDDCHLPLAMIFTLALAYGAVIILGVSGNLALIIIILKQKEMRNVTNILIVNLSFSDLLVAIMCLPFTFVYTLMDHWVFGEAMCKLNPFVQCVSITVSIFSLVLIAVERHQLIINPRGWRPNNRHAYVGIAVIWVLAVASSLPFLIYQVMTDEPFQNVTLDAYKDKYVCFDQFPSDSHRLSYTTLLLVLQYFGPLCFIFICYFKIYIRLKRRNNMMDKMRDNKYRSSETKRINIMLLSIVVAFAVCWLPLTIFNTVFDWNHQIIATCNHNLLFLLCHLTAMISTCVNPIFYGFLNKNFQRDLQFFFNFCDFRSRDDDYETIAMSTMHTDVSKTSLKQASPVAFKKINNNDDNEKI

[4] = target: T3, human NPY4 receptor (hY4R) (Homo sapiens, UniProt P50391); assay: HTRF cAMP Gi assay, hY4R; type: cell-based; conditions: CHO-K1 cells
T3 construct: expressed in transfected cells; host or cells: CHO-K1
Experimental: Briefly, the production of intracellular cAMP will generate a competition between unlabeled cAMP and exogenously added d2-cAMP for anti-cAMP antibodies conjugated to cryptate. CHO-K1 cells stably expressing the human NPY1, NPY2, NPY4 and NPY5 receptors were used with the cells brought to life from a frozen stock immediately before assay performance. 2000 cells per well were applied for all four NPY receptor subtype assays. A 384-well format was used applying a total volume of 20 μl using 5 μl cells, 2.5 μl peptide agonist, 2.5 μl forskolin and 5 μl of each of the fluorophores. […] Concentration-response evaluation of compounds was performed with 11 concentrations of agonist peptides (covering 3 decades). EC50 values were calculated by nonlinear regression using sigmoid concentration-response with variable slope.

[5] = target: T4, human NPY5 receptor (hY5R) (Homo sapiens, UniProt Q15761); assay: HTRF cAMP Gi assay, hY5R
T4 sequence (Q15761 1-445): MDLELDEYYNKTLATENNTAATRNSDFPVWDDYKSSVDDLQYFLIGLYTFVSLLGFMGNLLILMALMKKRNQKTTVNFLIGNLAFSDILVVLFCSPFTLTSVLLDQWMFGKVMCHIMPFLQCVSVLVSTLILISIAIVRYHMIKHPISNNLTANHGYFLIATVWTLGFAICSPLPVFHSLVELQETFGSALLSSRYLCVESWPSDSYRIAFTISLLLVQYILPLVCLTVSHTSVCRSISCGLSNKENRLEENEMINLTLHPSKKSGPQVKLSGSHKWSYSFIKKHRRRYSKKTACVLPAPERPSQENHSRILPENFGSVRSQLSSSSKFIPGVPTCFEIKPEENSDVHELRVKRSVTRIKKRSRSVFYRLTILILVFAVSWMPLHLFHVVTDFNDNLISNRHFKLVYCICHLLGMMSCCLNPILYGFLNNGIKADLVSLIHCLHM

[6] = target: T5, human NPY2 receptor (NPY2R) (human, UniProt P49146); assay: competition
T5 chain: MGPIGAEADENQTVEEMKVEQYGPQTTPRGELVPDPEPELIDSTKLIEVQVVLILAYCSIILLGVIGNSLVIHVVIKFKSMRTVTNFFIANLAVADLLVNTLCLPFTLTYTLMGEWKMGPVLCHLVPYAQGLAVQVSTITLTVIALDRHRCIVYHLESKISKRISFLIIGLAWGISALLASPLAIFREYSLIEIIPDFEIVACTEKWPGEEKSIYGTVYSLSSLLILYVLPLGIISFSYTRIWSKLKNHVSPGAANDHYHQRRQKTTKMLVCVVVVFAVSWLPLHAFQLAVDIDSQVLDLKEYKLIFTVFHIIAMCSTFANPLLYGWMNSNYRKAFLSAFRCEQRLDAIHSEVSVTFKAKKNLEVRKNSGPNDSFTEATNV

T3 sequence (P50391 whole entry): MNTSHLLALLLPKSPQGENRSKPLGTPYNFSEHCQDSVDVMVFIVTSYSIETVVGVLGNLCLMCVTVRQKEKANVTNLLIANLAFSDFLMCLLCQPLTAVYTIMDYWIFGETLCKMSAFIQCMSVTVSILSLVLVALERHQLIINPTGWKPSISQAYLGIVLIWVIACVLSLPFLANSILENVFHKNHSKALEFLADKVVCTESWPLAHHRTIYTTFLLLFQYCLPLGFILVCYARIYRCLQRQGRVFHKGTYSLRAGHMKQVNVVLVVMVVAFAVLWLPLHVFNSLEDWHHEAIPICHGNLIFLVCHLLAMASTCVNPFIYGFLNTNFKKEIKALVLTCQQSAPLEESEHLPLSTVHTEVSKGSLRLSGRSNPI

Molecule | Ki [1] [nM] | Ki [2] [nM] | Acute Food Intake 24 h [% vehicle] (NMRI mice) | Sol6 (Solubility determination) [mg/mL] | Sol7 (Solubility determination) [mg/mL] | EC50 [3] [nM] | EC50 [4] [nM] | EC50 [5] [nM] | Ki [6] [nM]
CC[C@H](C)[C@H](NC(=O)[C@H](CCC(=O)O)NC(=O)[C@H](CCC(=O)O)NC(=O)[C@@H]1CCCN1C(=O)[C@@H](NC(=O)[C@H](C)NC(=O)[C@H](CC(=O)O)NC(=O)[C@H](C)NC(=O)[C@H](CCC(=O)O)NC(=O)[C@@H]1CCCN1C(=O)[C@H](CCCCNC(=O)CCCCCNC(=O)CC[C@H](NC(=O)CCCCCCCCCCCCCCCCC(=O)O)C(=O)O)NC(=O)[C@H](CCC(=O)O)NC(=O)[C@@H]1CCCN1C(=O)[C@H](C)NC(=O)CC(C)C)[C@@H](C)O)C(=O)N[C@@H](CCC(N)=O)C(=O)N[C@@H](CCCNC(=N)N)C(=O)N[C@@H](Cc1ccc(O)cc1)C(=O)N[C@@H](Cc1ccc(O)cc1)C(=O)N[C@H](C(=O)N[C@@H](CO)C(=O)N[C@@H](CC(C)C)C(=O)N[C@@H](CCCNC(=N)N)C(=O)N[C@@H](Cc1c[nH]cn1)C(=O)N[C@@H](Cc1ccc(O)cc1)C(=O)N[C@@H](Cc1ccc(O)cc1)C(=O)N[C@@H](CC(N)=O)C(=O)N[C@@H](Cc1c[nH]c2ccccc12)C(=O)N[C@@H](CC(C)C)C(=O)N[C@H](C(=O)N[C@@H](CCCNC(=N)N)C(=O)N[C@@H](CCC(N)=O)C(=O)N[C@@H](CCCNC(=N)N)C(=O)N[C@@H](Cc1ccc(O)cc1)C(N)=O)[C@@H](C)O)C(C)C [Compound 7, N{alpha-4}-(3-methylbutanoyl)-N{epsilon-7}-(6-[(4S)-4-carboxy-4-(17-carboxyheptadecanamido)butanamido]hexanoyl)[4A,7K,9E,10A,13T,17I,18Q,22V,28Y,30W,31L]-hPYY(4-36)] | 3.1 | 1.04 | 38 | 8.9 | 9.2 | > 5000 | > 5000 | > 5000 | –
CC(C)CC(=O)N[C@@H](C)C(=O)N1CCC[C@H]1C(=O)N[C@@H](C)C(=O)N[C@@H](CCCCNC(=O)CCCCCNC(=O)CC[C@H](NC(=O)CCCCCCCCCCCCCCCCC(=O)O)C(=O)O)C(=O)N1CCC[C@H]1C(=O)N[C@@H](CCC(=O)O)C(=O)N[C@@H](CCC(=O)O)C(=O)N[C@@H](CC(=O)O)C(=O)N[C@@H](C)C(=O)N[C@H](C(=O)N1CCC[C@H]1C(=O)N[C@@H](CCC(=O)O)C(=O)N[C@@H](CCC(=O)O)C(=O)N[C@@H](CC(C)C)C(=O)N[C@@H](CCC(N)=O)C(=O)N[C@@H](CCCNC(=N)N)C(=O)N[C@@H](Cc1ccc(O)cc1)C(=O)N[C@@H](Cc1ccc(O)cc1)C(=O)N[C@H](C(=O)N[C@@H](CO)C(=O)N[C@@H](CC(C)C)C(=O)N[C@@H](CCCNC(=N)N)C(=O)N[C@@H](Cc1c[nH]cn1)C(=O)N[C@@H](Cc1ccc(O)cc1)C(=O)N[C@@H](Cc1ccc(O)cc1)C(=O)N[C@@H](CC(N)=O)C(=O)N[C@@H](Cc1c[nH]c2ccccc12)C(=O)N[C@@H](CC(C)C)C(=O)N[C@H](C(=O)N[C@@H](CCCNC(=N)N)C(=O)N[C@@H](CCC(N)=O)C(=O)N[C@@H](CCCNC(=N)N)C(=O)N[C@@H](Cc1ccc(O)cc1)C(N)=O)[C@@H](C)O)C(C)C)[C@@H](C)O [Compound 26, N{alpha-4}-(3-methylbutanoyl)-N{epsilon-7}-(6-[(4S)-4-carboxy-4-(17-carboxyheptadecanamido)butanamido]hexanoyl)[4A,6A,7K,9E,13T,18Q,22V,28Y,30W,31L]-hPYY(4-36)] | – | 5.64 | 53 | 9.2 | 9.1 | – | – | > 5000 | –
Isovaleryl-APEK([Ahx-γGlu-C18 diacid])PEAEASPEELQRYYVSLRHYYNWLTRQRY-NH2 [Compound 122] | – | – | – | – | – | – | – | – | 2.73
